Assays:
[1] = target: T1, human recombinant PRMT9 (Homo sapiens, UniProt Q6P2P2); test: AlphaLISA PRMT9 activity assay (modified BPS kit, biotinylated SF3B2 peptide); type: biochemical; conditions: for IC50: PRMT9 0.105 μM, biotinylated SF3B2 (500–519) peptide 100 nM, SAM 25 μM
T1 construct: human recombinant PRMT9 (2–845; N-terminal FLAG-tag, C-terminal His6-tag); FLAG (N); His6 (C); purchased BPS BioScience 79124
T1 sequence (Q6P2P2 2-845): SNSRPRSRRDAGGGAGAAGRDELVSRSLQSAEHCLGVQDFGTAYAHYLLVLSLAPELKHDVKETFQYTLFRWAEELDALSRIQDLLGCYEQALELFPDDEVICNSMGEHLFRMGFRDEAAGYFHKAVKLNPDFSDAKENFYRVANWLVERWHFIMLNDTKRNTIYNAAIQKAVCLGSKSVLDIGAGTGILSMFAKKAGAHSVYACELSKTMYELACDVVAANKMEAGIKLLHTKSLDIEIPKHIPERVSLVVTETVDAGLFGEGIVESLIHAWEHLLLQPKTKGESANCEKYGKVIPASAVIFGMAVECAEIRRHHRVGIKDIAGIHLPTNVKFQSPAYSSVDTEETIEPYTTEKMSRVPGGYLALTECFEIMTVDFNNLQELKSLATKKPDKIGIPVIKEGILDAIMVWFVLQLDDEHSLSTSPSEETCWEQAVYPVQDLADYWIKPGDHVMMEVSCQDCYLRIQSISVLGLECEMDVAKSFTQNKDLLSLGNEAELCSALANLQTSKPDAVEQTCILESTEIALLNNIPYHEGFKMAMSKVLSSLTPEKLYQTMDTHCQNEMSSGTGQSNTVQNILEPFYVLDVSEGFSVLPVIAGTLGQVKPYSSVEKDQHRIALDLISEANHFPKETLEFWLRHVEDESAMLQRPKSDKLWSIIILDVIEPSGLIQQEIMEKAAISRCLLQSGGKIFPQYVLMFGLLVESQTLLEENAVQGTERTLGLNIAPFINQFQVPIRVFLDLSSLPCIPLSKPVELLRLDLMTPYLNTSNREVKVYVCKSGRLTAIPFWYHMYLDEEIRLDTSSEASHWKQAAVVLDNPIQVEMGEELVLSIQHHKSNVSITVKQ
Method: Accordingly, all the enzymatic inhibition data were obtained by performing the assays in these optimized conditions.
The reaction was incubated for 60 min. Afterward, in each well, 5 μL of a 1:100 dilution of Primary antibody 28 (BPS BioScience, #52140Z3) in Detection buffer (BPS BioScience) and 5 μL of anti-Rabbit acceptor beads (PerkinElmer, #AL104C) were added to obtain a final concentration of 20 μg/mL.
For each incubation step, the OptiPlate was sealed with a protective foil to prevent evaporation and contamination. Donor and Acceptor beads were added to the mixture in subdued light.
The 100% activity (positive control) was reached using vehicle (DMSO), while 0% activity (negative control) was obtained without the protein. Data were analyzed by using Excel and Prism software. Values obtained for each compound are mean ± SD determined for three separate experiments.

[2] = set-up: method as in PMID 35482954; conditions: cited from earlier work
[3] = test system: PRMT4-catalyzed arginine methylation in MCF-7 cells; set-up: method as in PMID 35482954; conditions: cited from earlier work
[4] = test system: MCF-7 cells; set-up: method as in PMID 35482954; conditions: cited from earlier work
[5] = target: T2, PRMT1 (Homo sapiens, UniProt Q99873); test: HotSpot radioisotope-based filter assay, PRMT1; type: biochemical; conditions: 5 μM histone H4, 3H-SAM 1 μM
T2 construct: PRMT1 (residues 2–371, C-terminus); with an N-terminal GST-tag; GST (N); purchased Reaction Biology Corporation
T2 sequence (Q99873 2-371): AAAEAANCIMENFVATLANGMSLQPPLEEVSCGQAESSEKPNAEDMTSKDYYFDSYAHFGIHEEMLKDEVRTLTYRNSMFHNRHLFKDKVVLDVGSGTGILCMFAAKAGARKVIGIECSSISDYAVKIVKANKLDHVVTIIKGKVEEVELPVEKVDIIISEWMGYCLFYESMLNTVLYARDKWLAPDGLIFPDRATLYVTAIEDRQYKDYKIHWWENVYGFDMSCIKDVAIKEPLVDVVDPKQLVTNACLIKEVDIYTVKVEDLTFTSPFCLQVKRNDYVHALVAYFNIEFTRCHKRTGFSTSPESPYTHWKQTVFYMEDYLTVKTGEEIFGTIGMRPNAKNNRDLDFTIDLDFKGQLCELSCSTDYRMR
Method: (§1) Then, ^3H-SAM (final concentration of 1 μM) was delivered into the reaction mixture to initiate the reaction. After incubation for 60 min at 30 °C, the reaction mixture was delivered to filter-paper for detection (as assessed by scintillation). Data were analyzed using Excel and GraphPad Prism 6.0 software (GraphPad Software Inc., San Diego, CA) for IC50 curve fits using sigmoidal dose vs response - variable slope (four parameters) equations.

[6] = target: T3, PRMT3 (Homo sapiens, UniProt O60678); test: HotSpot radioisotope-based filter assay, PRMT3; type: biochemical; conditions: 5 μM histone H4, 3H-SAM 1 μM
T3 construct: PRMT3 (residues 2–531, C-terminus); with an N-terminal His-tag; His (N); purchased Reaction Biology Corporation
T3 sequence (O60678 2-531): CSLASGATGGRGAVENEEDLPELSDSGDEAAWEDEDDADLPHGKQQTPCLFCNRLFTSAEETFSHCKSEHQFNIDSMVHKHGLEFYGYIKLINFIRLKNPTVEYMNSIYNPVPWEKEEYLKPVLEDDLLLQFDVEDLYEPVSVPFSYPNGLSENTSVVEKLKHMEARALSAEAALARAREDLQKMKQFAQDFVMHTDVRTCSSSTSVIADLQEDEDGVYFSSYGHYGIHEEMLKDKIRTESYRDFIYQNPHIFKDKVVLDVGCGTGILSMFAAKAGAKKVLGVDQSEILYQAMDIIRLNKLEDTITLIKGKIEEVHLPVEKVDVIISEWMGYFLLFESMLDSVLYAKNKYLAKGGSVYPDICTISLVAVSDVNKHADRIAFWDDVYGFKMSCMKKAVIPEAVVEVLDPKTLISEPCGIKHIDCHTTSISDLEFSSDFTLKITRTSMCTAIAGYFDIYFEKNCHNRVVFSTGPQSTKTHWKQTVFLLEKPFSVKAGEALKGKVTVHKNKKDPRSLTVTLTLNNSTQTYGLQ
Method: as §1

[7] = target: T4, PRMT4 (Homo sapiens, UniProt Q86X55); test: HotSpot radioisotope-based filter assay, PRMT4; type: biochemical; conditions: 5 μM histone H3, 3H-SAM 1 μM
T4 construct: PRMT4 (residues 2–608, C-terminus); with an N-terminal GST-tag; GST (N); purchased Reaction Biology Corporation
T4 sequence (Q86X55 2-608): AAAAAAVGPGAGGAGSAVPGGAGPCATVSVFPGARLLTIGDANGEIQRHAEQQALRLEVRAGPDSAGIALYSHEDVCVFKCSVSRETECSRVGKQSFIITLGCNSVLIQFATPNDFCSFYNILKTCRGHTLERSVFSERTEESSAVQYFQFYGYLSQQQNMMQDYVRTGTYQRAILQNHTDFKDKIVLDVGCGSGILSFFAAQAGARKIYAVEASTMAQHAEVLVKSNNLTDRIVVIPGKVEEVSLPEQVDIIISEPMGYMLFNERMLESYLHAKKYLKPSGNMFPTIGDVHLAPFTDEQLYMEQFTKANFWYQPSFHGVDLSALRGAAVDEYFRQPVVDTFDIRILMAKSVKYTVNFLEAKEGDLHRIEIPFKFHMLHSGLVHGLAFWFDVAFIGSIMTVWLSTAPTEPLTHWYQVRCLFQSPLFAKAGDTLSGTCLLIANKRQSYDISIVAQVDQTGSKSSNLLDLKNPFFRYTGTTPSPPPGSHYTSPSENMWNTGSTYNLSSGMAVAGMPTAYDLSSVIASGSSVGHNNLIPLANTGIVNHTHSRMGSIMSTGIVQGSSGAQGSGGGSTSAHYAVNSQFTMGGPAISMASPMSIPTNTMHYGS
Method: as §1

[8] = target: T5, PRMT5/MEP50 complex (Homo sapiens, UniProt O14744); test: HotSpot radioisotope-based filter assay, PRMT5; type: biochemical; conditions: 5 μM histone H2A, 3H-SAM 1 μM
T5 construct: residues PRMT5 2–637, C-terminus, and MEP50 2–342, C-terminus; FLAG (N); purchased Reaction Biology Corporation
T5 sequence (O14744 2-637): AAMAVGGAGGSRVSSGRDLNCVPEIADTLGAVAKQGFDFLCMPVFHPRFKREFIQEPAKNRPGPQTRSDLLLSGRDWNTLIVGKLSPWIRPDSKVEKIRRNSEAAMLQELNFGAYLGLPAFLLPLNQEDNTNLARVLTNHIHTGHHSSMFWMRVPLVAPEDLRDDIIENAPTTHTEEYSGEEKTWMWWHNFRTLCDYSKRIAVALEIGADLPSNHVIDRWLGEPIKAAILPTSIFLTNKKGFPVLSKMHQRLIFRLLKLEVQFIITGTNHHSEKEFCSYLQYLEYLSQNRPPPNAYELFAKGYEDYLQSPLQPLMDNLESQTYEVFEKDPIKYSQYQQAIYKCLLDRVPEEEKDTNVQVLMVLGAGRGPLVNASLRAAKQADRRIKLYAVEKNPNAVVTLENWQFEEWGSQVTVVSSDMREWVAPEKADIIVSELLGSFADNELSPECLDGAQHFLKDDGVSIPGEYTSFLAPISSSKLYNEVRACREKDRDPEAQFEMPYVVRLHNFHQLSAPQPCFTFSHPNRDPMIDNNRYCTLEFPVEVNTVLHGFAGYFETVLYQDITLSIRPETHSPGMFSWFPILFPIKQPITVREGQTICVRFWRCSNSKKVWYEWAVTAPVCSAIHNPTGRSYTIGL
T5 sequence (Q9BQA1 2-342 partner limits assumed): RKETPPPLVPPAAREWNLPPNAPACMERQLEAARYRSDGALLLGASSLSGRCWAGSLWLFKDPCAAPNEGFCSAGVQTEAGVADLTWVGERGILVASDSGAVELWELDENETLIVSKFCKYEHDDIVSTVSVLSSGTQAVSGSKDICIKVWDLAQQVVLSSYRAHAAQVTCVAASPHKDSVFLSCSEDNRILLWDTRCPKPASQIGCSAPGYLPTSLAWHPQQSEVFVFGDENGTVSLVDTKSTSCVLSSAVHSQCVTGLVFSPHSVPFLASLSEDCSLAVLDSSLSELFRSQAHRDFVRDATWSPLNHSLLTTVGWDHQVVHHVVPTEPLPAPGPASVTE
Method: as §1

[9] = target: T6, PRMT6 (Homo sapiens, UniProt Q96LA8); test: HotSpot radioisotope-based filter assay, PRMT6; type: biochemical; conditions: 5 μM GST-GAR, 3H-SAM 1 μM
T6 construct: PRMT6 (residues 2–375, C-terminus); with an N-terminal GST-tag; GST (N); purchased Reaction Biology Corporation
T6 sequence (Q96LA8 2-375): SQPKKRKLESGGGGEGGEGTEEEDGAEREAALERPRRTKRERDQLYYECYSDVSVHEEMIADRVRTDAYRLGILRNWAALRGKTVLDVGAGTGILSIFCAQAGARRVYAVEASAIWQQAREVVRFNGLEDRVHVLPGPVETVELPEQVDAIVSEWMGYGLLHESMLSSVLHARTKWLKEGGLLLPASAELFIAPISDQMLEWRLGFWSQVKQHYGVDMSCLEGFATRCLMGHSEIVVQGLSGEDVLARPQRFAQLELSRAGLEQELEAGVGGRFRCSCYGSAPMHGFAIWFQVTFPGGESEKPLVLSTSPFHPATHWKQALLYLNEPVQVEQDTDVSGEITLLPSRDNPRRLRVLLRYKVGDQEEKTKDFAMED
Method: as §1

[10] = target: T7, PRMT7 (Homo sapiens, UniProt Q9NVM4); test: HotSpot radioisotope-based filter assay, PRMT7; type: biochemical; conditions: 5 μM GST-GAR, 3H-SAM 1 μM
T7 construct: PRMT7 (residues 2–692, C-terminus); with an N-terminal His-tag; His (N); purchased Reaction Biology Corporation
T7 sequence (Q9NVM4 2-692): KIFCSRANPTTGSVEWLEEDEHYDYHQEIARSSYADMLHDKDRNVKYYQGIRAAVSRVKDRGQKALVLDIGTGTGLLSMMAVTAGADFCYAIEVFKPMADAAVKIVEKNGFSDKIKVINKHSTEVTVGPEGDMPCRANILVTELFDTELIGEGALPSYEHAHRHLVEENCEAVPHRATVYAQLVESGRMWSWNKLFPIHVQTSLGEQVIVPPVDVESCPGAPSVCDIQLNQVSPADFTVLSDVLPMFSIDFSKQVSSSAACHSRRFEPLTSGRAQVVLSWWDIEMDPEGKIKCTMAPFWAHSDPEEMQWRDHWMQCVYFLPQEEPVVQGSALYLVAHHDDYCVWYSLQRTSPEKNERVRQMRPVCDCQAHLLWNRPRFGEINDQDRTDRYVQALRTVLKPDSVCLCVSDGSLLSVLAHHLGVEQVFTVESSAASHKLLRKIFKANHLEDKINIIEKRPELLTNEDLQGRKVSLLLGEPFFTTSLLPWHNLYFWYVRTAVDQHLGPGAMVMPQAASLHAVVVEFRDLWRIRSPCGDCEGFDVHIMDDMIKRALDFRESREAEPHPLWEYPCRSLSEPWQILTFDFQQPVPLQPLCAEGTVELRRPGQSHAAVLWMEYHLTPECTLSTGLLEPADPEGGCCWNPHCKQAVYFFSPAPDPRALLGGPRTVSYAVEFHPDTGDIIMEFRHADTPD
Method: as §1

[11] = target: T8, PRMT8 (Homo sapiens, UniProt Q9NR22); test: HotSpot radioisotope-based filter assay, PRMT8; type: biochemical; conditions: 5 μM histone H4, 3H-SAM 1 μM
T8 construct: (residues 61–394, C-terminus); with C- and N-terminal His-tags; His (N); His (C); purchased Reaction Biology Corporation
T8 sequence (Q9NR22 61-394): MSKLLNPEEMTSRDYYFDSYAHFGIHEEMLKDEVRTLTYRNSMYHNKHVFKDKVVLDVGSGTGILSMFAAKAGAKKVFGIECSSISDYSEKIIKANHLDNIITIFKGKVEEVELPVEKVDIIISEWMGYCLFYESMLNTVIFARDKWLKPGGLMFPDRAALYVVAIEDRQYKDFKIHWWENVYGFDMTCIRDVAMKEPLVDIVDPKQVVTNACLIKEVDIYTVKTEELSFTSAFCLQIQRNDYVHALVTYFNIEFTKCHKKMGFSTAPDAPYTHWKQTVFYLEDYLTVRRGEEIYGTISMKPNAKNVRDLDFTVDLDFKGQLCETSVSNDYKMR
Method: as §1

IC50 [1] | reduction in potency against PRMT9 compared to 1a ([1]; AlphaLISA IC50 values) | IC50 [5] | IC50 [6] | IC50 [7] | IC50 [8] | IC50 [9] | IC50 [10] | IC50 [11] | Structure (SMILES) | cell permeability [2] | PRMT4-catalyzed arginine methylation levels [3] | proliferation [4]
9.3 µM | – | – | – | – | – | – | – | – | COC(=O)c1cc(O)c2cc(NC(=O)NCCCCNC(=N)NC/C=C/[C@H]3O[C@@H](n4cnc5c(N)ncnc54)[C@H](O)[C@@H]3O)ccc2c1 [1h] | low | evident reduction | marked reduction
2.47 µM | 3 fold | > 100 µM | > 100 µM | 22.8 µM | 9.4 µM | 70 µM | 0.54 µM | 42 µM | COC(=O)c1cc(O)c2cc(NC(=O)NCCNC(=N)NC[C@H]3O[C@@H](n4cnc5c(N)ncnc54)[C@H](O)[C@@H]3O)ccc2c1 [1i, Methyl 6-(3-(2-(3-(((2R,3S,4R,5R)-5-(6-Amino-9H-purin-9-yl)-3,4-dihydroxytetrahydrofuran-2-yl)methyl)guanidino)ethyl)ureido)-4-hydroxy-2-naphthoate] | – | – | –
